The structures appear in SMILES notation. Converted amounts (≈) assume the structure as drawn.

Assay [1] relates to human chronic myelogenous leukaemia cell line K562. As to the kind of experiment: Cytotoxic activity (MTT assay). It is filed as cell-based. The conditions noted are these: K562, 72 h. The method, then:
Cytotoxic activity of extracts against the human chronic myelogenous leukaemia cell line K562 was estimated by the 3-(4,5-dimethylthiazol-2-yl)-2,5-diphenyltetrazolium bromide (MTT) assay of Khlifi et al.. The cells were grown in RPMI- 1640 medium supplemented with 10% faetal calf serum (Gibco, Gaithersburg, MD, USA), air and 5% CO2. The resulting blue formazan product can be measured spectrophotometrically. The MTT colorimetric assay was performed in 96-well plates. […] human chronic myelogenous leukaemia K562 cells were seeded in a 96-well plate at a concentration of 10^4 cells/well and incubated at 37 °C overnight in a 5% CO2 enriched atmosphere. Cells in exponential growth phase were incubated at 37 °C for 72 h with each tested compound at concentrations ranging from 3.12 to 400 μg/mL. After that, the medium was removed and cells were treated with MTT solution (100 μL, 0.2 mg/mL in PBS) at 37 °C for 2 h. MTT solution was then discarded and DMSO (500 μL) was added to dissolve insoluble formazan crystals. Optical density was measured at 540 nm. Each extract concentration was tested in triplicate. Doxorubicin was used as positive control.
Background: Formazan colour is commonly taken as a measure of viable cells.

The subject of assay [2] is Pseudomonas aeruginosa ATCC 27853. As to the kind of experiment: Antibacterial activity, broth microdilution. The conditions noted are these: ATCC27853, positive control. In kind it is cell-based.
Protocol: (§1) The test microorganisms included the following Gram-positive bacteria: Staphylococcus aureus ATCC 25923, Enterococcus faecalis ATCC 29212; Gram-negative bacteria: Escherichia coli ATCC 25922 and Pseudomonas aeruginosa ATCC 27853 and four Candida yeasts: Candida albicans ATCC 90028, C. glabrata ATCC 90030, C. kreusei ATCC 6258 and C. parapsilosis ATCC 22019).
(§2) The MIC values for the antibacterial and anticandidal screening were determined with the broth dilution method (microdilution using 96-well microplates) following the procedure described by Cintia et al. [35]. Briefly, all samples were prepared at a concentration of 10 mg/mL by dissolution of the extracts in 10% DMSO. The final concentrations of the plant samples tested ranged from 40 to 2 × 10^4 µg/mL. The MIC of each sample was defined as the lowest concentration of oil that inhibited either the bacterial or candidal growth, after incubation at 37 °C for 18 to 24 h. The MBC and the MFC were determined by subculture on blood agar at 37 °C for 18 to 24 h. Thymol and gentamicin or thymol and amphotericin B were used as positive controls against the bacterial or candidal strains, respectively. […] All tests were performed in triplicate.
The subject of assay [3] is Escherichia coli ATCC 25922. Put plainly: Antibacterial activity, broth microdilution. To be noted: ATCC25922, positive control. In kind it is cell-based.
Protocol: as §1, §2
The subject of assay [4] is Enterococcus faecalis ATCC 29212. Put plainly: Antibacterial activity, broth microdilution. It is filed as cell-based. The conditions noted are these: ATCC29212, positive control.
Protocol: as §2
The test system of assay [5] is Staphylococcus aureus ATCC 25923. As to the kind of experiment: Antibacterial activity, broth microdilution. To be noted: ATCC25923, positive control. It is filed as cell-based.
Protocol: as §2
Assay [6] has as its system Candida albicans ATCC 90028. Put plainly: Anticandida activity, broth microdilution. It is filed as cell-based. The conditions noted are these: ATCC90028, positive control.
Protocol: as §1, §2
Assay [7] concerns Candida parapsilosis ATCC 22019. Put plainly: Anticandida activity, broth microdilution. In kind it is cell-based. To be noted: Lodderomyces parapsilosis, ATCC22019; positive control. (Broth dilution looks for growth in wells or tubes with falling amounts of substance.)
Protocol: as §1, §2
The test system of assay [8] is Candida glabrata ATCC 90030. As to the kind of experiment: Anticandida activity, broth microdilution. In kind it is cell-based. To be noted: Nakaseomyces glabratus, ATCC90030; positive control.
Protocol: as §1, §2
Assay [9] deals with Candida kreseui ATCC 6258. Put plainly: Anticandida activity, broth microdilution. In kind it is cell-based. To be noted: ATCC6258, positive control.
Protocol: as §2
The nature of assay [10]: Antioxidant activity by DPPH assay. The method, then: Diluted methanol solutions of the samples at different concentrations (1 mL each) were mixed with 1 mL of a freshly prepared (80 µg/mL) methanol solution of DPPH. The resulted solution was incubated at 37 °C for 30 min after what the absorbance of the solution was measured at 517 nm. Lower absorbance of the reaction mixture indicates higher free radical scavenging activity. Tests were carried out in triplicate. Decrease in absorption induced by the tested sample was compared to that of the positive control ascorbic acid. The capability to scavenge the DPPH^.radical was calculated using the following equation: Inhibition ratio (DPPH^. scavenging effect) (%) = [(Acontrol − Asample) / Acontrol] × 100 (1)
The IC50 was calculated using the linear relation between the compound concentration and the probability of the percentage of DPPH inhibition.
On the technique in general: DPPH is a stable violet radical that fades when it is reduced.

A short description of assay [11]: Antioxidant activity by ABTS assay. As for the experimental part:
ABTS was dissolved in water to a 7 mM concentration and the ABTS radical cation was produced by adding potassium persulfate to a final concentration of 2.45 mM [31]. The radical generation was completed in the dark at room temperature for 12 h. This solution was then diluted with methanol to adjust its absorbance at 734 nm to 0.706 ± 0.009. To determine the scavenging activity, 1 mL of diluted ABTS^+. solution was added to 1 mL of methanolic solutions of extract at different concentrations and the absorbance at 734 nm was measured 10 min after the initial mixing, using methanol as the blank. The percentage of inhibition was calculated by the equation: [(Acontrol − Asample)/Acontrol] × 100 (2) where Acontrol is the absorbance of the control reaction containing all reagents except the tested sample, and Asample is the absorbance of the test compound. Tests were carried out in triplicate. Ascorbic acid was used as the positive control. The IC50 was calculated using linear relation between the compound concentration and probability of the percentage of ABTS inhibition.

`COc1cccc2c1C(=O)c1c(O)c3c(c(O)c1C2=O)C[C@@](O)(C(=O)CO)C[C@@H]3O[C@H]1C[C@H](N)[C@H](O)[C@H](C)O1` [Doxorubicin]: the IC50 (in general, the midpoint of a concentration-inhibition curve) in [1] was found to be 0.1 µg/mL (≈ 0.184 µM).
Take `CNC(C)C1CCC(N)C(OC2C(N)CC(N)C(OC3OCC(C)(O)C(NC)C3O)C2O)O1` (stereo not shown) [Gentamecin, gentamicin]: the MBC (as a rule, the smallest concentration meeting the test's criterion for killing) in assay [2] came to 0.5 µg/mL (≈ 1.05 µM); in [3], 0.01 µg/mL (≈ 0.0209 µM); in assay [4], 0.01 µg/mL (≈ 0.0209 µM); in assay [5] it was 0.15 µg/mL (≈ 0.314 µM).
`C[C@@H]1[C@H](O)[C@@H](C)/C=C/C=C/C=C/C=C/C=C/C=C/C=C/[C@H](O[C@@H]2O[C@H](C)[C@@H](O)[C@H](N)[C@@H]2O)C[C@@H]2O[C@](O)(C[C@@H](O)C[C@@H](O)[C@H](O)CC[C@@H](O)C[C@@H](O)CC(=O)O[C@H]1C)C[C@H](O)[C@H]2C(=O)O` [Amphotericin B]: the MFC in assay [6], in assay [7], in [8] and in [9] was 0.5 µg/mL (≈ 0.541 µM) each time.
Take `Cc1ccc(C(C)C)c(O)c1` [Thymol]: the MIC (in general, the lowest concentration that inhibits growth of the organism) in assay [2] turned out to be 1 µg/mL (≈ 6.66 µM); in [6], 0.13 µg/mL (≈ 0.865 µM); in assay [7], 0.32 µg/mL (≈ 2.13 µM); in assay [8] it was 0.16 µg/mL (≈ 1.07 µM); in assay [3] it was 0.25 µg/mL (≈ 1.66 µM); in assay [4] it was 0.6 µg/mL (≈ 3.99 µM). Further, the MIC turned out to be 0.32 µg/mL (≈ 2.13 µM) in assay [9] and 0.2 µg/mL (≈ 1.33 µM) in [5].
Consider `O=C1O[C@H]([C@@H](O)CO)C(O)=C1O` [Vitamin C, L-ascorbic acid], for which the “DPPH Assay IC50” value in assay [10] was 4.4 ± 0.1 µg/mL. Also, in assay [11], the “ABTS+ Assay IC50” value came to 4.1 ± 0.1 µg/mL.

(Values after paper PMC6271717, “Chemical Composition, Biological and Cytotoxic Activities of Plant Extracts and Compounds Isolated from Ferula lutea” (Molecules, 2014).)
